We go through eleven compounds from patent publication US11739101B2, “Bifunctional degraders of hematopoietic progenitor kinase and therapeutic uses thereof” (Nurix Therapeutics, Inc., priority 2020, dated 2023).

As a reminder, the Dmax is the largest share of the target that was removed.

T1 sequence (Q92918 whole entry): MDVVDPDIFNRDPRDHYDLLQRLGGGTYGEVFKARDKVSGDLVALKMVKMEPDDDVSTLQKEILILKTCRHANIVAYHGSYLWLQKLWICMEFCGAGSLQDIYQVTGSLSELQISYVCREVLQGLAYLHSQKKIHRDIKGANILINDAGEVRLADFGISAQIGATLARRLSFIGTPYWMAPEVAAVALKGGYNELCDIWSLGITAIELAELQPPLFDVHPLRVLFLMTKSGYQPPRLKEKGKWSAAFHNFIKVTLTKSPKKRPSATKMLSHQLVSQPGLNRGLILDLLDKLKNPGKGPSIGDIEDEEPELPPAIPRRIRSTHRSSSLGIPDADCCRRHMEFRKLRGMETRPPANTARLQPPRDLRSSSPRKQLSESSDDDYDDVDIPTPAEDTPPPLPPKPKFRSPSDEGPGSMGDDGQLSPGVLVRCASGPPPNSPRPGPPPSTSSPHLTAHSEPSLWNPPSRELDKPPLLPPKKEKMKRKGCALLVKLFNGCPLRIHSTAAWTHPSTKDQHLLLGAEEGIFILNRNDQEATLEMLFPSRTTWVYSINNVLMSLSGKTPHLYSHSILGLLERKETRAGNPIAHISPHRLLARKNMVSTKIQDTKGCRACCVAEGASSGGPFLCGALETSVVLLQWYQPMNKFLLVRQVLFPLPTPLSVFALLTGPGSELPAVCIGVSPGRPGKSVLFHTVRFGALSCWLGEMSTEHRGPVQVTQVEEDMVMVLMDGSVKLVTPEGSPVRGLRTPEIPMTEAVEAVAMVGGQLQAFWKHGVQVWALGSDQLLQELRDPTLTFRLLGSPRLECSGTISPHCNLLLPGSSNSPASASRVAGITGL

This assay concerns the target T1, HPK1 (Homo sapiens, UniProt Q92918).
T1 construct: A HiBiT tag was introduced by CRISPR on the N terminus of HPK1 in Jurkat cells; host or cells: Jurkat (ATCC TIB-152), monoclonal CRISPR HiBiT knock-in line
As to the kind of experiment: HPK1 Cellular HiBiT Degradation Assay. It counts as cell-based. Particulars: HiBiT-tagged HPK1 Jurkat cells, 24 hours, 10 uM to 0.1 nM; Dmax = 100 minus lowest % HPK1 remaining vs DMSO vehicle. The protocol:
HiBiT HPK1 Jurkat cell lines were used to evaluate the total protein levels of HPK1 in a robust human cellular high throughput format. The level of HPK1 remaining following treatment with HPK1 CTMs is reported as Dmax (maximum degradation) achieved at 24 hours when compared to vehicle treated controls. […] These decreases were not a result of cytotoxicity measured by a parallel viability assessment (CTG). See also Table 1.
A HiBiT tag was introduced by CRISPR on the N terminus of HPK1 in Jurkat cells (ATCC® TIB-152) to allow quantitation of HPK1 protein levels in a monoclonal human cell line. Cells were plated at 1×10^6 cells/mL, 30 uL/well (3×10^4 cells/well) in complete RPMI 1640 (10% heat inactivated FBS, 1% L-glutamine) in 384-well assay plates (Corning, cat. no. 3570). HPK1 chimeric targeting molecules (CTMs) were added in an 11-point dilution series (3.16-fold) with a final assay concentration range of 10 uM to 0.1 nM. The parental Jurkat cell line, with no HiBiT insertion, was included in the assay as a background control. Cells treated with a DMSO vehicle control were used to determine the maximum signal defining 100% HPK1 in the cell. Cells were incubated for 24 hours at 37° C./5% CO2. Following incubation, 30 uL of complete Nano-Glo HiBiT Lytic Detection Reagent (Promega cat. no. N3040) was added. Cells were incubated for 10 minutes at room temperature and luminescence was read on an EnVision plate reader (Perkin Elmer, 0.1 sec per well). Parallel plates were assessed for viability using Cell Titer Glo (Promega) and read on an EnVision plate reader to ensure results were not the effect of cytotoxicity. Percent HPK1 remaining per sample was calculated as follows: […]
% HPK1 remaining values were plotted as a function of compound concentration and curves were fit using the Prism (GraphPad) equation “log(inhibitor) vs response−Variable slope (four parameters)”. Dmax values were calculated by identifying the lowest % remaining and subtracting from 100. Dmax values are provided in Table 1, wherein A>65%, 45%≤B≤65% and C<45%.
Background: The HiBiT peptide binds its large partner to form an active luciferase.
Turning to `Cc1cc(F)c(Nc2nc(-c3ccc4c(c3)N([C@H]3C[C@@H](N5CCCCC5)C3)C(=O)C43CCN(C(=O)C4CCN(Cc5ccc(C(=O)NCCNc6cccc7c6C(=O)N(C6CCC(=O)NC6=O)C7=O)nc5)CC4)CC3)cc3ncn(C(C)C)c23)cc1C(=O)NC(C)C` (some centres unmarked) [Example 89, N-(2-{[2-(2,6-dioxopiperidin-3-yl)-1,3-dioxoisoindol-4-yl]amino}ethyl)-5-[(4-{[6-(4-{[2-fluoro-5-(isopropylcarbamoyl)-4-methylphenyl]amino}-3-isopropylimidazo[4,5-c]pyridin-6-yl)-2-oxo-1-[(s,3s)-3-(piperidin-1-yl)cyclobutyl]spiro[indole-3,4′-piperidin]-1′-yl]carbonyl}piperidin-1-yl)methyl]pyridine-2-carboxamide], the Dmax was above 65%.
`Cc1cc(F)c(Nc2nc(-c3ccc4c(c3)N([C@H]3C[C@@H](N5CCCCC5)C3)C(=O)C43CCN(C(=O)CN4CCN(c5ccc(CC(=O)NCCNc6cccc7c6C(=O)N(C6CCC(=O)NC6=O)C7=O)cc5)CC4)CC3)cc3ncn(C(C)C)c23)cc1C(=O)NC(C)C` (some centres unmarked) [Example 44, 5-({6-[1′-(2-{4-[4-({[2-({2-[2,6-dioxopiperidin-3-yl]-1,3-dioxo-2,3-dihydro-1H-isoindol-4-yl}amino)ethyl]carbamoyl}methyl)phenyl]piperazin-1-yl}acetyl)-2-oxo-1-[(1s,3s)-3-(piperidin-1-yl)cyclobutyl]-1,2-dihydrospiro[indole-3,4′-piperidin]-6-yl]-3-(propan-2-yl)-3H-imidazo[4,5-c]pyridin-4-yl}amino)-4-fluoro-2-methyl-N-(propan-2-yl)benzamide] showed a Dmax of 45 to 65%.
Same read-out and setting: as for `Cc1cc(F)c(Nc2nc(-c3ccc4c(c3)N([C@H]3C[C@@H](N5CCCCC5)C3)C(=O)C43CCN(C(=O)CC4CCCN(CC5CCN(c6ccc7c(c6)C(=O)N(C6CCC(=O)NC6=O)C7=O)C5)C4)CC3)cc3ncn(C(C)C)c23)cc1C(=O)NC(C)C` (stereo partly drawn) [Example 29, 5-{[6-(1′-{2-[(3S)-1-({1-[2-(2,6-dioxopiperidin-3-yl)-1,3-dioxo-2,3-dihydro-1H-isoindol-5-yl]pyrrolidin-3-yl}Methyl)piperidin-3-yl]acetyl}-2-oxo-1-[(1s,3s)-3-(piperidin-1-yl)cyclobutyl]-1,2-dihydrospiro[indole-3,4′-piperidin]-6-yl)-3-(propan-2-yl)-3H-imidazo[4,5-c]pyridin-4-yl]amino}-4-fluoro-2-methyl-N-(propan-2-yl)benzamide], the figure is 45 to 65%; as for `Cc1cc(F)c(Nc2nc(-c3ccc4c(c3)N([C@H]3C[C@@H](N5CCCCC5)C3)C(=O)C43CCN(C(=O)c4ccc(CN5CCN(c6ccc7c(c6)C(=O)N(C6CCC(=O)NC6=O)C7=O)CC5)cc4)CC3)cc3ncn(C(C)C)c23)cc1C(=O)NC(C)C` (some centres unmarked) [Example 91, 5-[(6-{1′-[4-({4-[2-(2,6-dioxopiperidin-3-yl)-1,3-dioxoisoindol-5-yl]piperazin-1-yl}methyl)benzoyl]-2-oxo-1-[(1s,3s)-3-(piperidin-1-yl)cyclobutyl]spiro[indole-3,4′-piperidin]-6-yl}-3-isopropylimidazo[4,5-c]pyridin-4-yl)amino]-4-fluoro-N-isopropyl-2-methylbenzamide], 45 to 65%; as for `Cc1cc(F)c(Nc2nc(-c3ccc4c(c3)N([C@H]3C[C@@H](N5CCCCC5)C3)C(=O)C43CCN(C(=O)C[C@H]4CCN(C(=O)[C@H]5CC[C@H](Nc6cccc7c6C(=O)N(C6CCC(=O)NC6=O)C7=O)CC5)C4)CC3)cc3ncn(C(C)C)c23)cc1C(=O)NC(C)C` (stereo partly drawn) [Example 57, 4-fluoro-2-methyl-5-{[6-(2-oxo-1′-{2-[(3R)-1-[(1R,4R)-4-({2-[2,6-dioxopiperidin-3-yl]-1,3-dioxo-2,3-dihydro-1H-isoindol-4-yl}amino)cyclohexanecarbonyl]pyrrolidin-3-yl]acetyl}-1-[(1s,3s)-3-(piperidin-1-yl)cyclobutyl]-1,2-dihydrospiro[indole-3,4′-piperidin]-6-yl)-3-(propan-2-yl)-3H-imidazo[4,5-c]pyridin-4-yl]amino}-N-(propan-2-yl)benzamide], below 45%.
In the case of `Cc1cc(F)c(Nc2nc(-c3ccc4c(c3)N([C@H]3C[C@@H](N5CCCCC5)C3)C(=O)C43CCN(C(=O)C4CCN(C(=O)C[C@@H]5CCCN(c6cccc7c6C(=O)N(C6CCC(=O)NC6=O)C7=O)C5)C4)CC3)cc3ncn(C(C)C)c23)cc1C(=O)NC(C)C` (stereo partly drawn) [Example 32, 5-({6-[1′-(1-{2-[(3S)-1-{2-[2,6-dioxopiperidin-3-yl]-1,3-dioxo-2,3-dihydro-1H-isoindol-4-yl}piperidin-3-yl]acetyl}pyrrolidine-3-carbonyl)-2-oxo-1-[(1s,3s)-3-(piperidin-1-yl)cyclobutyl]-1,2-dihydrospiro[indole-3,4′-piperidin]-6-yl]-3-(propan-2-yl)-3H-imidazo[4,5-c]pyridin-4-yl}amino)-4-fluoro-2-methyl-N-(propan-2-yl)benzamide], the Dmax was below 45%.
`Cc1cc(F)c(Nc2nc(-c3ccc4c(c3)N(C3CC(N5CCCCC5)C3)C(=O)C43CCN(C(=O)[C@@H]4CCN(C(=O)[C@H]5CC[C@H](Oc6cccc7c6C(=O)N(C6CCC(=O)NC6=O)C7=O)CC5)C4)CC3)cc3ncn(C(C)C)c23)cc1C(=O)NC(C)C` (stereo partly drawn) [Example 54, 4-fluoro-2-methyl-5-[(6-{2-oxo-1′-[(3R)-1-[(1R,4R)-4-{[2-(2,6-dioxopiperidin-3-yl)-1,3-dioxo-2,3-dihydro-1H-isoindol-4-yl]oxy}cyclohexanecarbonyl]pyrrolidine-3-carbonyl]-1-[(1s,3s)-3-(piperidin-1-yl)cyclobutyl]-1,2-dihydrospiro[indole-3,4′-piperidin]-6-yl}-3-(propan-2-yl)-3H-imidazo[4,5-c]pyridin-4-yl)amino]-N-(propan-2-yl)benzamide] gave a Dmax below 45%.
In turn, `Cc1cc(F)c(Nc2nc(-c3ccc4c(c3)N([C@H]3C[C@@H](N5CCCCC5)C3)C(=O)C43CCN(C(=O)C4CCN(C(=O)CN5CC6(CCN(c7ccc8c(c7)C(=O)N(C7CCC(=O)NC7=O)C8=O)CC6)C5)CC4)CC3)cc3ncn(C(C)C)c23)cc1C(=O)NC(C)C` (some centres unmarked) [Example 42, 5-{[6-(1′-{1-[2-(7-{2-[2,6-dioxopiperidin-3-yl]-1,3-dioxo-2,3-dihydro-1H-isoindol-5-yl}-2,7-diazaspiro[3.5]nonan-2-yl)acetyl]piperidine-4-carbonyl}-2-oxo-1-[(1s,3s)-3-(piperidin-1-yl)cyclobutyl]-1,2-dihydrospiro[indole-3,4′-piperidin]-6-yl)-3-(propan-2-yl)-3H-imidazo[4,5-c]pyridin-4-yl]amino}-4-fluoro-2-methyl-N-(propan-2-yl)benzamide] came in with a Dmax of 45 to 65%.
On to `Cc1cc(F)c(Nc2nc(-c3ccc4c(c3)N([C@H]3C[C@@H](N5CCCCC5)C3)C(=O)C43CCN(C(=O)C4CCN(C(=O)C5CCN(c6ccc7c(c6)C(=O)N(C6CCC(=O)NC6=O)C7=O)CC5)C4)CC3)cc3ncn(C(C)C)c23)cc1C(=O)NC(C)C` (some centres unmarked) [Example 40], for which the Dmax lay in the range of 45 to 65%.
Same read-out and setting: as for `Cc1cc(F)c(Nc2nc(-c3ccc4c(c3)N([C@H]3C[C@@H](N5CCCCC5)C3)C(=O)C43CCN(C(=O)c4cnc(N5CCN(c6cccc7c6C(=O)N(C6CCC(=O)NC6=O)C7=O)CC5)cn4)CC3)cc3ncn(C(C)C)c23)cc1C(=O)NC(C)C` (some centres unmarked) [Example 84, 5-((6-(1′-(5-(4-(2-(2,6-dioxopiperidin-3-yl)-1,3-dioxoisoindolin-4-yl)piperazin-1-yl)pyrazine-2-carbonyl)-2-oxo-1-((1s,3s)-3-(piperidin-1-yl)cyclobutyl)spiro[indoline-3,4′-piperidin]-6-yl)-3-isopropyl-3H-imidazo[4,5-c]pyridin-4-yl)amino)-4-fluoro-N-isopropyl-2-methylbenzamide], the figure is 45 to 65%.
`Cc1cc(F)c(Nc2nc(-c3ccc4c(c3)N(C3CC(N5CCCCC5)C3)C(=O)C43CCN(C(=O)c4ccc(C(=O)N(C)C5CCC(Nc6cccc7c6C(=O)N(C6CCC(=O)NC6=O)C7=O)CC5)cc4)CC3)cc3ncn(C(C)C)c23)cc1C(=O)NC(C)C` [Example 61, 4-fluoro-2-methyl-5-({6-[1′-(4-{methyl[(1R,4R)-4-{[2-(2,6-dioxopiperidin-3-yl)-1,3-dioxo-2,3-dihydro-1H-isoindol-4-yl]amino}cyclohexyl]carbamoyl}benzoyl)-2-oxo-1-[(1s,3s)-3-(piperidin-1-yl)cyclobutyl]-1,2-dihydrospiro[indole-3,4′-piperidin]-6-yl]-3-(propan-2-yl)-3H-imidazo[4,5-c]pyridin-4-yl}amino)-N-(propan-2-yl)benzamide]: the “Cellular HPK1 HiBiT: Dmax (%)” value is listed as “A (A>65%)”.
